Where “and” joins values, the source holds several entries; their conditions need not be identical. Identical values can stand only once.
How the values were obtained:
[1] = tested on: MYC target genes; assay: qRT-PCR of MYC target genes; type: cell-based, human; conditions: qRT-PCR and RNA-seq; result in words
Experimental: Total RNA was extracted using TRIzol (Invitrogen, CA, USA) according to the manufacturer’s instructions. Reverse transcription of total cellular RNA was carried out using oligo (dT) primers and M-MLV reverse transcriptase (Transgen Biotech, Beijing, China). PCR was performed using a Mycycler thermal cycler and analyzed using LineGene9600. The PCR primer sequences were as follows: MYC forward, 5′-[…]-3′; MYC reverse, 5′-[…]-3′; GAPDH forward, 5′-[…]-3′; GAPDH reverse, 5′-[…]-3′; TFAP4 forward, 5′-[…]-3′, TFAP4 reverse, 5′-[…]-3′; PLD6 forward, 5′-[…]-3′, PLD6 reverse, 5′-[…]-3′; CCNA1 forward, 5′-[…] GCAG-3′, CCNA1 reverse, 5′-[…]-3′; CCND1 forward, 5′-CCGTCC […]-3′, CCND1 reverse, 5′-[…]-3′; CCNE2 forward, 5′-TTC […]-3′; and CCNE2 reverse, 5′-[…]-3′. The human FBXW7 siRNA sequence was 5′-[…]-3′, the human MYC siRNA sequence was 5′-[…] GCGAA-3′, and the human HUWE1 siRNA sequence was 5′-[…]-3’. TRIB3 siRNAs were produced by RiboBio (Guangzhou, China) and transfected using Lipofectamine RNA interference MAX Transfection Reagent (Life Technologies, CA, USA) according to the manufacturer’s instructions.

[2] = tested on: MYC and UBE3B; assay: MYC/UBE3B colocalized foci in Raji cells; type: cell-based, human
Experimental: A total of 1 × 10^6 cells were seeded overnight in a six-well plate. […] The cells were then treated with the Duolink In Situ Red Starter Mouse/Rabbit kit (Sigma Aldrich, DUO92101-1KT) according to the manufacturer’s instructions. Images were captured with an OLYMPUS confocal microscope.
For immunofluorescence staining, cells seeded on coverslips were briefly washed with PBS and fixed with 4% buffered paraformaldehyde for 15 min, permeabilized with 0.5% Triton X- 100 for 15 min, blocked with 3% BSA for 30 min at 37 °C, and stained with specific primary antibodies followed by corresponding secondary antibodies. Nuclei were counterstained with DAPI. Images were captured using a confocal fluorescent microscope (Olympus Microsystems, CA, USA). Quantitative image analysis was performed with the Imaris 9.3.1 software. Pearson’s coefficient was use to analyze colocalization between two target proteins.

[3] = tested on: TRIB3-MYC interaction; assay: SIM imaging and Co-IP of the TRIB3-MYC interaction in Raji cells; type: cell-based, human; conditions: SIM (30 min) and Co-IP (4 μM, six hours), versus PCON, result in words
Experimental: Co-IP experiments were performed as described previously. Briefly, cells were collected and lysed for 30 min on ice. Soluble lysates were incubated with the indicated antibodies at 4 °C overnight, followed by incubation with Protein A/G Plus-Agarose (Santa Cruz Biotechnology, TX, USA) at 4 °C for 2 h. Soluble lysates were incubated with the indicated Anti-Myc magnetic beads (Bimake.com, B26302), Anti-Flag Affinity Gel (Bimake.com, B23102) or Anti-HA Affinity Gel (Bimake.com, B23302) at 4 °C overnight. Immunocomplexes were separated from the beads and then boiled for 10 min. The precipitated proteins were subjected to SDS-PAGE and blotted with specific antibodies. For immunoblotting assays, proteins were extracted from cells, spleens, or lymphoma tissues using RIPA buffer (Cell Signaling Technology, MA, USA). A BCA Protein Assay Kit was used to determine protein concentrations. Protein extracts were separated by SDS-PAGE, transferred onto PVDF membranes, and subjected to immunoblot analysis. Western blot images were captured by a Tanon 5200 chemiluminescent imaging system (Tanon, Shanghai, […]). Human lymphoma and benign LN paraffin tissue microarrays were purchased from US Biomax (LM482a).
Cells (~20,000) were grown on coverslips and fixed with formalin after the indicated treatment. […]

[4] = tested on: DLBCL^T169 PDX; assay: PDX model tumor growth and weight, DLBCL T169; type: in vivo, human; conditions: result in words
Experimental: Four 5-week-old male NSG mice were implanted subcutaneously with 200 μl of a 1:1 mixture of Matrigel® Basement Membrane Matrix High Concentration (Corning, 354230) and minced fresh tumor fragments resected from lymphoma patients. Approximately 3–4 weeks following implantation, the first-generation mice (G1) were killed, and tumor masses were isolated. The tumor cells were tested for human CD19 (BCL) or CD3 expression (T cell lymphoma), and the remaining tumor mass was cut into 3-mm^3 sections and passaged into 4–5 NSG mice as the second generation (G2). After stable passage of the third generation (G3), the tumor mass of the fourth generation (G4) was equally cut into 3-mm^3 pieces and then passaged subcutaneously into 30–50 NSG mice (100 μl of a 1:2 mixture of Matrigel and tumor tissue) for in vivo treatment (6–8 mice per group, dependent on the experimental drug treatment). During and after treatment with the vehicle control or the indicated agent, tumor burden was evaluated by measuring the tumor volume to determine the therapeutic efficacy in the PDX models. […]
To evaluate the survival rate, these mice were monitored for 8 months (Myc^Eμ mice). […] During the indicated treatments, tumor burden was evaluated by measuring the tumor volume to determine the therapeutic efficacy in the PDX models.

In the case of “HLYVSPWGGKRREQLKHKLEQLR [PCM4, fused peptide generated by linking CM4 to a cell-penetrating peptide]”, the “transcription of MYC target genes” value [1] is reported as “suppressed the transcription of MYC target genes”, the “Fig 6f. MYC/UBE3B foci per cell” value ([2]; 30 Min, single cells, n = 20) is reported as 12 and 11 and the “interaction of MYC and UBE3B” value ([2]; result in words) is reported as “rescued the interaction of MYC and UBE3B”. The “colocalization and interaction of TRIB3 with MYC in lymphoma cells” value [3] was “inhibited the colocalization and interaction of TRIB3 with MYC”, the “growth and weights of tumors, combination of PCM4 and DOX” value ([4]; PDX T169 (high TRIB3 and MYC expression), PCM4 5 mg/kg and DOX 2 mg/kg) was “further decreased the growth and weights of tumors” and the “tumor growth of PDX” value ([4]; PDX T169, NSG mice, PCM4 5 mg/kg i.v. three times a week) was “inhibited the tumor growth”.

— publication PMC7725785, “TRIB3 promotes MYC-associated lymphoma development through suppression of UBE3B-mediated MYC degradation” (Nature Communications, 2020)
